The values that follow are results of earlier work, collected in patent publication US20230360801A1, “METHODS AND SYSTEMS OF IDENTIFYING INDIVIDUALS FOR PERIOPERATIVE NEUROCOGNITIVE DISORDER AND/OR POST-VIRAL COGNITIVE IMPAIRMENT” (Cambridge Cognition Limited, priority 2021, published 2023).

A word on the logP: it is the decadic logarithm of the partition coefficient of the neutral form, usually between octanol and water. `CC(C)(Oc1ccc(C(=O)c2ccc(Cl)cc2)cc1)C(=O)O` [fenofibric acid]: the logP is 3.9.
